Laboratory results reported in US10206400B2, “Insecticidal compounds based on isoxazoline derivatives” (Syngenta Crop Protection LLC, priority 2009, dated 2019).

Columns and labels:
Type in all cases: in vivo
Spodoptera littoralis = Spodoptera littoralis (Egyptian cotton leafworm) leaf disc spray test; settings: foliar, 72 h, 200 ppm spray on cotton leaf discs, L1 larvae, mortality, feeding behavior, growth regulation 3 days after treatment
From the text: Cotton leaf discs were placed on agar in a 24-well microtiter plate and sprayed with test solutions at an application rate of 200 ppm. After drying, the leaf discs were infested with 5 L1 larvae. The samples were checked for mortality, feeding behavior, and growth regulation 3 days after treatment (DAT).

Heliothis virescens = Heliothis virescens (tobacco budworm) egg/artificial diet test; settings: 96 h, 200 ppm (concentration in well 18 ppm), eggs 0-24 h old on artificial diet, 4 days, egg mortality, larval mortality, growth regulation
Protocol: Eggs (0-24 h old) were placed in 24-well microtiter plate on artificial diet and treated with test solutions at an application rate of 200 ppm (concentration in well 18 ppm) by pipetting. After an incubation period of 4 days, samples were checked for egg mortality, larval mortality, and growth regulation.

Plutella xylostella = Plutella xylostella (diamond back moth) artificial diet test; settings: 144 h, 200 ppm (concentration in well 18 ppm), L2 larvae, 6 days, larval mortality, growth regulation
Protocol: (§1) 24-well microtiter plate (MTP) with artificial diet was treated with test solutions at an application rate of 200 ppm (concentration in well 18 ppm) by pipetting. After drying, the MTP's were infested with L2 larvae (7-12 per well). After an incubation period of 6 days, samples were checked for larval mortality and growth regulation.

Diabrotica balteata = Diabrotica balteata (corn root worm) artificial diet test; settings: 120 h, 200 ppm (concentration in well 18 ppm), L2 larvae, 5 days, larval mortality, growth regulation
Protocol: as §1, with “A 24-well” for “24-well”, “(6-10” for “(7-12”, “5” for “6”

Myzus persicae = Myzus persicae (green peach aphid), systemic test; settings: 144 h, roots of infested pea seedlings in test solution, 6 days, mortality, special effects on the plant
From the text: Myzus persicae (Green peach aphid), systemic test: Roots of pea seedlings, infested with an aphid population of mixed ages, are placed directly in the test solutions at an application rate of 12.5 ppm. 6 days after introduction, samples are checked for mortality and special effects on the plant. The following compounds gave at least 80% control of Myzus persicae: A3, B2, B3, B5, B6, B7, B8, B11, B12, C1, C2, C3,C4, C5, C6, C7, D1, E1, E2, G1, G3, G5, G6, H1, H5, H6, H9, H10, H11, H12, H13, H14, H18, H19, H20, H24, H25, and H26.

Thrips tabaci = Thrips tabaci (onion thrips) leaf disc spray test; settings: foliar, 168 h, 200 ppm spray on sunflower leaf discs, mixed ages, 7 days, mortality
Protocol: [The procedure below names another target; the source lists this target under the same test.] Sunflower leaf discs were placed on agar in a 24-well microtiter plate and sprayed with test solutions at an application rate of 200 ppm. After drying, the leaf discs were infested with an […] population of mixed ages. After an incubation period of 7 days, samples were checked for mortality.

Tetranychus urticae = Tetranychus urticae (two-spotted spider mite) leaf disc spray test; settings: foliar, 192 h, 200 ppm spray on bean leaf discs, mixed ages, 8 days, egg, larval and adult mortality
From the text: Bean leaf discs on agar in 24-well microtiter plates were sprayed with test solutions at an application rate of 200 ppm. After drying, the leaf discs are infested with mite populations of mixed ages. 8 days later, discs are checked for egg mortality, larval mortality, and adult mortality.

CCN1OC[C@@H](NC(=O)c2ccc(C3=NOC(c4cc(F)cc(Cl)c4)(C(F)(F)F)C3)cc2C)C1=O (stereo partly drawn) [Compound C5, 4-[5-(3-chloro-5-fluoro-phenyl)-5-trifluoromethyl-4,5-dihydro-isoxazol-3-yl]-2-methyl-N-((R)-2-ethyl-3-oxo-isoxazolidin-4-yl)-benzamide]
≥ 80%: pest or weed control at 200 ppm (Spodoptera littoralis) | pest or weed control at 200 ppm (Heliothis virescens) | pest or weed control at 200 ppm (Plutella xylostella) | pest or weed control at 200 ppm (Diabrotica balteata) | pest or weed control at 12.5 ppm (Myzus persicae) | pest or weed control at 200 ppm (Thrips tabaci) | pest or weed control at 200 ppm (Tetranychus urticae)

CCN1OC[C@@H](NC(=O)c2ccc(C3=NOC(c4cc(Cl)c(Cl)c(Cl)c4)(C(F)(F)F)C3)cc2C)C1=O (stereo partly drawn) [Compound C1, 4-[5-(3,4,5-Trichloro-phenyl)-5-trifluoromethyl-4,5-dihydro-isoxazol-3-yl]-2-methyl-N-((R)-2-ethyl-3-oxo-isoxazolidin-4-yl)-benzamide]
≥ 80%: pest or weed control at 200 ppm (Spodoptera littoralis) | pest or weed control at 200 ppm (Heliothis virescens) | pest or weed control at 200 ppm (Plutella xylostella) | pest or weed control at 200 ppm (Diabrotica balteata) | pest or weed control at 12.5 ppm (Myzus persicae) | pest or weed control at 200 ppm (Thrips tabaci) | pest or weed control at 200 ppm (Tetranychus urticae)

CCN1OC[C@@H](NC(=O)c2ccc(C3=NO[C@@](c4cc(Cl)cc(Cl)c4)(C(F)(F)F)C3)cc2C)C1=O [Compound G1, 4-[5-(3,5-dichloro-phenyl)-5-(S)-trifluoromethyl-4,5-dihydro-isoxazol-3-yl]-2-methyl-N—((R)-2-ethyl-3-oxo-isoxazolidin-4-yl)-benzamide]
≥ 80%: pest or weed control at 200 ppm (Spodoptera littoralis) | pest or weed control at 200 ppm (Heliothis virescens) | pest or weed control at 200 ppm (Plutella xylostella) | pest or weed control at 200 ppm (Diabrotica balteata) | pest or weed control at 12.5 ppm (Myzus persicae) | pest or weed control at 200 ppm (Thrips tabaci) | pest or weed control at 200 ppm (Tetranychus urticae)

COCCN1OC[C@@H](NC(=O)c2ccc(C3=NOC(c4cc(Cl)cc(Cl)c4)(C(F)(F)F)C3)cc2C)C1=O (stereo partly drawn) [Compound B7, 4-[5-(3,5-Dichloro-phenyl)-5-trifluoromethyl-4,5-dihydro-isoxazol-3-yl]-2-methyl-N-((R)-2-(2-methoxyethyl)-3-oxo-isoxazolidin-4-yl)-benzamide]
≥ 80%: pest or weed control at 200 ppm (Spodoptera littoralis) | pest or weed control at 200 ppm (Heliothis virescens) | pest or weed control at 200 ppm (Plutella xylostella) | pest or weed control at 200 ppm (Diabrotica balteata) | pest or weed control at 12.5 ppm (Myzus persicae) | pest or weed control at 200 ppm (Thrips tabaci) | pest or weed control at 200 ppm (Tetranychus urticae)

CCN1CC(CNC(=O)c2ccc(C3=NOC(c4cc(Cl)cc(Cl)c4)(C(F)(F)F)C3)cc2C)CS1(=O)=O (stereo not shown) [Compound D1, 4-[5-(3,5-Dichloro-phenyl)-5-trifluoromethyl-4,5-dihydro-isoxazol-3-yl]-N-(2-ethyl-1,1-dioxo-1lambda*6*-isothiazolidin-4-ylmethyl)-2-methl-benzamide]
≥ 80%: pest or weed control at 200 ppm (Spodoptera littoralis) | pest or weed control at 200 ppm (Heliothis virescens) | pest or weed control at 200 ppm (Plutella xylostella) | pest or weed control at 200 ppm (Diabrotica balteata) | pest or weed control at 12.5 ppm (Myzus persicae) | pest or weed control at 200 ppm (Thrips tabaci) | pest or weed control at 200 ppm (Tetranychus urticae)

Cc1cc(C2=NOC(c3cc(Cl)cc(Cl)c3)(C(F)(F)F)C2)ccc1C(=O)N[C@@H]1CON(C2COC2)C1=O (stereo partly drawn) [Compound B12, 4-[5-(3,5-Dichloro-phenyl)-5-trifluoromethyl-4,5-dihydro-isoxazol-3-yl]-2-methyl-N-((R)-2-(oxetan-3-yl)-3-oxo-isoxazolidin-4-yl)-benzamide]
≥ 80%: pest or weed control at 200 ppm (Spodoptera littoralis) | pest or weed control at 200 ppm (Heliothis virescens) | pest or weed control at 200 ppm (Plutella xylostella) | pest or weed control at 200 ppm (Diabrotica balteata) | pest or weed control at 12.5 ppm (Myzus persicae) | pest or weed control at 200 ppm (Thrips tabaci) | pest or weed control at 200 ppm (Tetranychus urticae)

Cc1cc(C2=NOC(c3cc(Cl)cc(Cl)c3)(C(F)(F)F)C2)ccc1C(=O)N[C@H]1CON(C)C1=O (stereo partly drawn) [Compound E1, 4-[5-(3,5-Dichloro-phenyl)-5-trifluoromethyl-4,5-dihydro-isoxazol-3-yl]-2-methyl-N-((S)-2-methyl-3-oxo-isoxazolidin-4-yl)-benzamide]
≥ 80%: pest or weed control at 200 ppm (Spodoptera littoralis) | pest or weed control at 200 ppm (Heliothis virescens) | pest or weed control at 200 ppm (Plutella xylostella) | pest or weed control at 200 ppm (Diabrotica balteata) | pest or weed control at 12.5 ppm (Myzus persicae) | pest or weed control at 200 ppm (Thrips tabaci) | pest or weed control at 200 ppm (Tetranychus urticae)

CCN1OC[C@H](NC(=O)c2ccc(C3=NOC(c4cc(Cl)cc(Cl)c4)(C(F)(F)F)C3)cc2C)C1=O (stereo partly drawn) [Compound E2, 4-[5-(3,5-Dichloro-phenyl)-5-trifluoromethyl-4,5-dihydro-isoxazol-3-yl]-2-methyl-N-((S)-2-ethyl-3-oxo-isoxazolidin-4-yl)-benzamide]
≥ 80%: pest or weed control at 200 ppm (Spodoptera littoralis) | pest or weed control at 200 ppm (Heliothis virescens) | pest or weed control at 200 ppm (Plutella xylostella) | pest or weed control at 200 ppm (Diabrotica balteata) | pest or weed control at 12.5 ppm (Myzus persicae) | pest or weed control at 200 ppm (Thrips tabaci) | pest or weed control at 200 ppm (Tetranychus urticae)

Cc1cc(C2=NOC(c3cc(Cl)cc(Cl)c3)(C(F)(F)F)C2)ccc1C(=O)N[C@@H]1CON(C)C1=O (stereo partly drawn) [Compound B2, 4-[5-(3,5-Dichloro-phenyl)-5-trifluoromethyl-4,5-dihydro-isoxazol-3-yl]-2-methyl-N-((R)-2-methyl-3-oxo-isoxazolidin-4-yl)-benzamide]
≥ 80%: pest or weed control at 200 ppm (Spodoptera littoralis) | pest or weed control at 200 ppm (Heliothis virescens) | pest or weed control at 200 ppm (Plutella xylostella) | pest or weed control at 200 ppm (Diabrotica balteata) | pest or weed control at 12.5 ppm (Myzus persicae) | pest or weed control at 200 ppm (Thrips tabaci) | pest or weed control at 200 ppm (Tetranychus urticae)

CCN1CC(NC(=O)c2ccc(C3=NOC(c4cc(Cl)cc(Cl)c4)(C(F)(F)F)C3)cc2C)CO1 (stereo not shown) [Compound A3, 4-[5-(3,5-Dichloro-phenyl)-5-trifluoromethyl-4,5-dihydroisoxazol-3-yl]-N-(2-ethyl-isoxazolidin-4-yl)-2-methyl-benzamide]
≥ 80%: pest or weed control at 200 ppm (Spodoptera littoralis) | pest or weed control at 200 ppm (Heliothis virescens) | pest or weed control at 200 ppm (Plutella xylostella) | pest or weed control at 200 ppm (Diabrotica balteata) | pest or weed control at 12.5 ppm (Myzus persicae) | pest or weed control at 200 ppm (Thrips tabaci) | pest or weed control at 200 ppm (Tetranychus urticae)

CCN1OC[C@H](NC(=O)c2ccc(C3=NO[C@@](c4cc(Cl)cc(Cl)c4)(C(F)(F)F)C3)cc2C)C1=O [Compound G3, 4-[5-(3,5-dichloro-phenyl)-5-(S)-trifluoromethyl-4,5-dihydro-isoxazol-3-yl]-2-methyl-N—((S)-2-ethyl-3-oxo-isoxazolidin-4-yl)-benzamide]
≥ 80%: pest or weed control at 200 ppm (Spodoptera littoralis) | pest or weed control at 200 ppm (Heliothis virescens) | pest or weed control at 200 ppm (Plutella xylostella) | pest or weed control at 200 ppm (Diabrotica balteata) | pest or weed control at 12.5 ppm (Myzus persicae) | pest or weed control at 200 ppm (Thrips tabaci) | pest or weed control at 200 ppm (Tetranychus urticae)

Cc1cc(C2=NO[C@@](c3cc(Cl)cc(Cl)c3)(C(F)(F)F)C2)ccc1C(=O)N[C@@H]1CON(CC(F)F)C1=O [Compound G5, 4-[5-(3,5-Dichloro-phenyl)-5-(S)-trifluoromethyl-4,5-dihydro-isoxazol-3-yl]-2-methyl-N—((R)-2-(2,2-difluoroethyl)-3-oxo-isoxazolidin-4-yl)-benzamide]
≥ 80%: pest or weed control at 200 ppm (Spodoptera littoralis) | pest or weed control at 200 ppm (Heliothis virescens) | pest or weed control at 200 ppm (Plutella xylostella) | pest or weed control at 200 ppm (Diabrotica balteata) | pest or weed control at 12.5 ppm (Myzus persicae) | pest or weed control at 200 ppm (Thrips tabaci) | pest or weed control at 200 ppm (Tetranychus urticae)

C#CCN1OC[C@@H](NC(=O)c2ccc(C3=NOC(c4cc(Cl)cc(Cl)c4)(C(F)(F)F)C3)cc2C)C1=O (stereo partly drawn) [Compound B3, 4-[5-(3,5-Dichloro-phenyl)-5-trifluoromethyl-4,5-dihydro-isoxazol-3-yl]-2-methyl-N-((R)-2-propargyl-3-oxo-isoxazolidin-4-yl)-benzamide]
≥ 80%: pest or weed control at 200 ppm (Spodoptera littoralis) | pest or weed control at 200 ppm (Heliothis virescens) | pest or weed control at 200 ppm (Plutella xylostella) | pest or weed control at 200 ppm (Diabrotica balteata) | pest or weed control at 12.5 ppm (Myzus persicae) | pest or weed control at 200 ppm (Thrips tabaci) | pest or weed control at 200 ppm (Tetranychus urticae)
